Laboratory results taken from patent publication EP1149104B1, “PYRROLOBENZODIAZEPINE CARBOXYAMIDE VASOPRESSIN AGONISTS” (Wyeth, priority 1999, dated 2000).

System: vasopressin V2 receptors
Assay: Vasopressin V2 agonist effects in normal conscious water-loaded rats
Type: in vivo
Conditions: oral dose of 10 mg/Kg, urine collected for four hours, Sprague-Dawley (CD) rats; for Changes in Urinary Osmolality: osmolality changes expressed as percent of control; for Urine Volume (% decrease): percent decrease in urine volume vs. control
Source text: Vasopressin V2 Agonist Effects of Test Compounds in Normal Conscious Water-Loaded Rats:
Male or female normotensive Sprague-Dawley rats (Charles River Laboratories, Inc., Kingston, NY) of 350-500 g body weight were supplied with standard rodent diet (Purina Rodent Lab. Chow 5001) and water ad libitum. On the day of test, rats were placed individually into metabolic cages equipped with devices to separate the feces from the urine and containers for collection of urine. A test compound or a reference agent was given at an oral dose of 10 mg/Kg in a volume of 10 mL/Kg. The vehicle used was 20% dimethylsulfoxide (DMSO) in 2.5% preboiled corn starch. Thirty minutes after dosing the test compound, rats were gavaged with water at 30 mL/Kg into the stomach using a feeding needle. During the test, rats were not provided with water or food. Urine was collected for four hours after dosing of the test compound. At the end of four hours, urine volume was measured. Urinary osmolality was determined using a Fiske One-Ten Osmometer (Fiske Associates, Norwood, MA, 02062) or an Advanced CRYOMATIC Osmometer, Model 3C2 (Advanced Instruments, Norwood, MA). Determinations of Na^+, K^+- and Cl^- ion were carried out using ion specific electrodes in a Beckman SYNCHRON EL-ISE Electrolyte System analyzer. The urinary osmolality should increase proportionally. In the screening test, two rats were used for each compound. If the difference in the urine volume of the two rats was greater than 50%, a third rat was used.

SMILES | Changes in Urinary Osmolality | Urine Volume (% decrease)
O=C(c1ccc2ncsc2c1)N1Cc2cccn2Cc2ccccc21 [Example 4, (Benzothiazol-6-yl)-(5H-10,11-dihydro-pyrrolo[2,1-c][1,4]benzodiazepin-10-yl)-methanone] | 3% of control | 19 % decrease
Cn1ccc2cc(C(=O)N3Cc4cccn4Cc4ccccc43)ccc21 [Example 1, (5H-10,11-Dihydro-pyrrolo [2,1-c][1,4]benzodiazepin-10-yl)-(1-methyl-1H-indol-5-yl)-methanone] | 174% of control | 66 % decrease
O=C(c1ccc2c(c1)OCO2)N1Cc2cccn2Cc2ccccc21 [Example 2, Benzo[1,3]dioxol-5-yl-(5H-10,11-dihydro-pyrrolo [2,1-c][1-4]benzodiazepin-10-yl)-methanone] | 41% of control | 23 % decrease
O=C(c1ccc2c(c1)CCO2)N1Cc2cccn2Cc2ccccc21 [Example 3, (2,3-Dihydro-benzofuran-5-yl)-(5H-10,11-dihydro-pyrrolo[2,1-c][1,4]benzodiazepin-10-yl)-methanone] | 10% of control | 32 % decrease
